# In US20110110930A1, “Mitogen-Activated Protein Kinase Kinase Kinase 14 (MAP3K14) Polymorphisms As Indicators of Subject Outcome in Critically Ill Subjects” (priority 2007, published 2011):
# “Also recorded” adds a separate entry of the source.
# System: ICU subjects with severe sepsis
# Test: Response to steroids in ICU severe sepsis subjects by MAP3K14 rs7222094 genotype (28-day survival, days alive and free of organ dysfunction)
# Type: in vivo, human
# Settings: for SURV (28-Day Survival): % (N survived); for Delta SURV (28-Day Survival): treat (steroid-treated) minus cont (steroid untreated controls), difference of % survival; for Delta COAG.DAF (Days alive and free of coagulation dysfunction) / Delta CVS.DAF (Days alive and free of cardiovascular dysfunction) / Delta DA (Days alive) / Delta INR.DAF (Days alive and free of international normalized ratio >1.5) / Delta LIVER.DAF (Days alive and free of any type of hepatic dysfunction) / Delta PRESS.DAF (Days alive and free of any vasopressors) / Delta RENAL.DAF (Days alive and free of any type of renal dysfunction) / Delta RENSUP.DAF (Days alive and free of renal support) / Delta RESP.DAF (Days alive and free of respiratory dysfunction) / Delta VENT.DAF (Days alive and free of mechanical ventilators): treat minus cont (steroid untreated controls), difference of medians
# Protocol: All subjects admitted to the ICU of St. Paul's Hospital (SPH) were screened for study inclusion. SPH ICU is a mixed medical-surgical ICU in a tertiary care, university-affiliated teaching hospital. Subjects were included in the study if they met at least two out of four SIRS criteria: 1) fever (>38° C.) or hypothermia (<36° C.), 2) tachycardia (>90 beats/minute), 3) tachypnea (>20 breaths/minute), PaCO2<32 mm Hg, or need for mechanical ventilation, and 4) leukocytosis (total leukocyte count>12,000 mm^3) or leukopenia (<4,000 mm^3). Subjects were included in the analysis if they met the diagnostic criteria for septic shock (sepsis and cardiovascular dysfunction (as defined by Brussels scoring system) and one other organ dysfunction) on admission to the ICU. Subjects were excluded if blood could not be obtained for genotype analysis. Baseline characteristics (age, gender, admission APACHE II score (KNAUS W A. et al. Crit. Care Med. (1985) 13:818-829), together with medical vs. surgical diagnosis KNAUS W A. et al. Chest (1991) 100:1619-1636) were recorded on admission to the ICU. The full cohort meeting these criteria included 1072 Caucasian subjects and 153 Asian subjects.
# The primary outcome variable evaluated in this study was 28-day mortality. Various organ dysfunctions were considered as secondary outcome variables. Baseline demographics recorded were age, gender, admission APACHE II score (KNAUS W A. et al. Crit. Care Med (1985) 13:818-829), and medical or surgical diagnosis on admission to the ICU (based on the APACHE III diagnostic codes) (KNAUS W A. et al. Chest (1991) 100:1619-1636) (TABLE 2B).
# After meeting the inclusion criteria, data were recorded for each 24-hour period (8 am to 8 am) for 28-days after ICU admission or until hospital discharge to evaluate organ dysfunction, the intensity of SIRS (Systemic Inflammatory Response Syndrome) and sepsis. Raw clinical and laboratory variables were recorded using the worst or most abnormal variable for each 24-hour period with the exception of Glasgow Coma Score, for which the best possible score for each 24-hour period was recorded. Missing data on the date of admission was assigned a normal value and missing data after day one was substituted by carrying forward the value from the previous day. When data collection for each patient was complete, all patient identifiers were removed from all records and the patient file was assigned a unique random number linked with the blood samples. The completed raw data file was used to calculate descriptive and severity of illness scores using standard definitions as described below.
# Organ dysfunction was first evaluated at baseline and then daily using the Brussels score (SIBBALD W J. and VINCENT J L. Chest (1995) 107(2):522-7) (see TABLE 2A in General Methods Section). If the Brussels score was moderate, severe, or extreme dysfunction then organ dysfunction was recorded as present on that day. To correct for deaths during the observation period, we calculated the days alive and free of organ dysfunction (RUSSELL J A. et al. Crit. Care Med (2000) 28(10):3405-11 and BERNARD G R. et al. Chest (1997) 112(1):164-72) (TABLE 2C). For example, the severity of cardiovascular dysfunction was assessed by measuring days alive and free of cardiovascular dysfunction over a 28-day observation period. Days alive and free of cardiovascular dysfunction was calculated as the number of days after inclusion that a patient was alive and free of cardiovascular dysfunction over 28-days. Thus, a lower score for days alive and free of cardiovascular dysfunction indicates more cardiovascular dysfunction. The reason that days alive and free of cardiovascular dysfunction is preferable to simply presence or absence of cardiovascular dysfunction is that severe sepsis has a high acute mortality so that early death (within 28-days) precludes calculation of the presence or absence of cardiovascular dysfunction in dead subjects. […]
# [1] = steroid-treated, rs7222094 TT (N = 74), Table 4.3 25th percentile/median/75th percentile, Table 4.5 median
substance,measurement,setting,value
hydrocortisone [steroids],worse survival of steroid-treated than untreated subjects,"rs7222094 CC subjects, p=0.02023, Pearson's Chi-square",15%
same,28-day survival and organ dysfunction compared to controls (in words),steroid-treated subjects with rs7222094 CC,lower 28-day survival and more organ dysfunction than controls; also recorded: decreases 28-day survival
same,28-day survival and organ function compared to controls (in words),steroid-treated subjects with rs7222094 TT,increased survival and improved organ function; also recorded: improved compared with controls
same,SURV (28-Day Survival),"steroid-treated, genotypes Combined (N = 355)",57% (203)
same,SURV (28-Day Survival),"steroid-treated, rs7222094 CC (N = 122)",45% (55)
same,RENAL.DAF (Days alive and free of any type of renal dysfunction),"steroid-treated, rs7222094 CC (N = 122), Table 4.3 25th percentile/median/75th percentile, Table 4.5 median",0 days
same,SURV (28-Day Survival),"steroid-treated, rs7222094 TC (N = 159)",59% (94)
same,DA (Days alive),[1],28 days
same,INR.DAF (Days alive and free of international normalized ratio >1.5),[1],27 days
same,LIVER.DAF (Days alive and free of any type of hepatic dysfunction),[1],28 days
same,Delta SURV (28-Day Survival),rs7222094 CC,−15.0
same,Delta SURV (28-Day Survival),rs7222094 TC,−7.0
same,Delta SURV (28-Day Survival),rs7222094 TT,3.0
same,Delta COAG.DAF (Days alive and free of coagulation dysfunction),rs7222094 CC,-11.5 days
same,Delta CVS.DAF (Days alive and free of cardiovascular dysfunction),rs7222094 CC,-1.0 days
same,Delta DA (Days alive),rs7222094 CC,-5.0 days
same,Delta INR.DAF (Days alive and free of international normalized ratio >1.5),rs7222094 CC,-6.0 days
same,Delta LIVER.DAF (Days alive and free of any type of hepatic dysfunction),rs7222094 CC,-6.5 days
same,Delta PRESS.DAF (Days alive and free of any vasopressors),rs7222094 CC,-11.0 days
same,Delta RENAL.DAF (Days alive and free of any type of renal dysfunction),rs7222094 CC,-4.0 days
same,Delta RENSUP.DAF (Days alive and free of renal support),rs7222094 CC,-9.0 days
same,Delta RESP.DAF (Days alive and free of respiratory dysfunction),rs7222094 CC,-12.0 days
same,Delta VENT.DAF (Days alive and free of mechanical ventilators),rs7222094 CC,-11.0 days
same,Delta COAG.DAF (Days alive and free of coagulation dysfunction),rs7222094 TC,-3.0 days
same,Delta CVS.DAF (Days alive and free of cardiovascular dysfunction),rs7222094 TC,-0.5 days
same,Delta DA (Days alive),rs7222094 TC,0.0 days
same,Delta INR.DAF (Days alive and free of international normalized ratio >1.5),rs7222094 TC,-1.0 days
same,Delta LIVER.DAF (Days alive and free of any type of hepatic dysfunction),rs7222094 TC,0.0 days
same,Delta PRESS.DAF (Days alive and free of any vasopressors),rs7222094 TC,-7.0 days
same,Delta RENAL.DAF (Days alive and free of any type of renal dysfunction),rs7222094 TC,-9.5 days
same,Delta RENSUP.DAF (Days alive and free of renal support),rs7222094 TC,-9.0 days
same,Delta RESP.DAF (Days alive and free of respiratory dysfunction),rs7222094 TC,-7.0 days
same,Delta VENT.DAF (Days alive and free of mechanical ventilators),rs7222094 TC,-11.0 days
same,Delta COAG.DAF (Days alive and free of coagulation dysfunction),rs7222094 TT,-0.5 days
same,Delta CVS.DAF (Days alive and free of cardiovascular dysfunction),rs7222094 TT,1.0 days
same,Delta DA (Days alive),rs7222094 TT,0.0 days
same,Delta INR.DAF (Days alive and free of international normalized ratio >1.5),rs7222094 TT,0.0 days
same,Delta LIVER.DAF (Days alive and free of any type of hepatic dysfunction),rs7222094 TT,0.0 days
same,Delta PRESS.DAF (Days alive and free of any vasopressors),rs7222094 TT,-2.0 days
same,Delta RENAL.DAF (Days alive and free of any type of renal dysfunction),rs7222094 TT,-5.5 days
same,Delta RENSUP.DAF (Days alive and free of renal support),rs7222094 TT,0.0 days
same,Delta RESP.DAF (Days alive and free of respiratory dysfunction),rs7222094 TT,-2.0 days
same,Delta VENT.DAF (Days alive and free of mechanical ventilators),rs7222094 TT,-2.0 days
